US20140323575A1, “TYROSINE ISOMERS AS THERAPEUTIC AGENTS” (CONSEJO NACIONAL DE INVESTIGACIONES CIENTIFICAS Y TECNICAS …, priority 2011, published 2014)

Experiments:
ERK1 and ERK2 = test: Western blot of p-ERK 1/2 in LB tumor cells; type: cell-based, mice; conditions: LB cells cultured 3 minutes with m-tyrosine (250 μg/mL)
Description: (§1) FIG. 8 illustrates the effect of meta-tyrosine on the expression of phosphorylated (p)-Erk 1/2 and p-STAT3 in LB tumor cells using Western blot: 3×10^5 LB tumor cells in 0.1 mL of medium were cultured in the presence of 0.1 mL of meta-tyrosine (m-Tyr; 250 μg/mL), phenylalanine (Phe, 250 μg/mL), meta-tyrosine (250 μg/mL)+phenylalanine (250 μg/mL), or saline for 3 minutes (to measure p-ERK 1/2) or for 8 hours (to measure p-STAT3). Positive control was obtained by treating LB cells with pervanadate. Controls with acting, total ERK 1/2, and total STAT3 were also added. FIG. 8A illustrates a representative experiment showing p-ERK 1/2 expression. FIG. 8B is a histogram showing the mean of 5 experiments; a, P<0.01 versus saline and versus meta-tyrosine+phenylalanine; P<0.02 versus phenylalanine. FIG. 8C illustrates a representative experiment showing p-STAT3 expression. […]
(§2) On this basis, we analyzed, first, the effect of m-tyrosine on ERK1 and ERK2 as 2 examples of protein kinases that are activated by the mitogen activated protein/extracellular signal-regulated kinase (MAP/ERK) signal transduction pathway that normally couples intracellular responses associated with cell proliferation, to the binding of growth factors to cell surface receptors (Kohno M, and Pouyssegur J. 2006. Targeting the ERK signaling pathway in cancer therapy. Ann Med; 38:200-211). […]

STAT3 = test: Western blot of p-STAT3 in LB tumor cells; type: cell-based, mice; conditions: LB cells cultured 8 hours with m-tyrosine (250 μg/mL)
Description: as §1, §2

**Q.** What does the source list for `NC(Cc1cccc(O)c1)C(=O)O` (centres unmarked) [meta-tyrosine, 3-hydroxyphenylalanine]?
**A.** activation of ERK1 and ERK2 (p-ERK 1/2 expression) (ERK1 and ERK2): significantly reduced; activation of STAT3 (p-STAT3 expression) (STAT3): significantly reduced
